Here are results for one compound from publication PMC12873548, “D-amino acid substitution and cyclization enhance the stability and antimicrobial activity of arginine-rich peptides” (Microbiology, 2026).

For data set [1], the system named is Gram-positive and Gram-negative bacteria. The format is cell-based. The settings on record: span of MIC and MBC against both Gram-positive and Gram-negative bacteria, Table 2. The method, then: (§1) The MIC of arginine-based peptides was assessed using the microbroth dilution approach. Our in vitro screening included a panel of Gram-negative bacteria, Escherichia coli (ATCC 25922 and enterohaemorrhagic O157:H7) and Pseudomonas aeruginosa (PA01 and the drug-resistant strain NCTC 13437), and Gram-positive bacteria (Staphylococcus aureus ATCC 12600). Five-millilitre overnight cultures in Lysogeny broth, prepared from single isolated colonies, were diluted to 5×10^6 c.f.u. ml^−1 mid-log phase in Mueller–Hinton (MH) broth. Next, peptide concentrations (0 to 1 mM) were serially diluted twofold in 96-well plates and incubated overnight at 37 °C with the tested bacterial strains. In each case, the MIC was determined as the lowest peptide concentration at which no detectable bacterial growth was observed, employing an absorbance-based assay using a Tecan Spark® multimode plate reader. Subsequently, 10 µl aliquots from each peptide dilution were transferred to MH agar (1.5%) plates to determine the minimum bactericidal concentration (MBC) which was assessed by establishing at which concentration no visible growth of bacteria (assessed via colony formation) on the plate was observed.

Data set [2] has as its system S. aureus (12600). Format: cell-based, Staphylococcus aureus. Here is the method: as §1
(§2) The antimicrobial activity and structural stability of arginine-rich peptides were evaluated in the presence of human serum (20% and 50 %) and 5 µM Sequencing Grade Modified Trypsin (SGMT, Promega). Briefly, fresh human blood was collected in EDTA tubes and allowed to clot at room temperature for 1 h. Serum was then collected following centrifugation at 2,000 r.p.m. for 10 min at 4 °C. Peptides were incubated with 20%, 50% human serum and 5 µM SGMT in 50 mM Tris-HCl buffer (1 mM CaCl₂, pH 7.6) for 24 h at 37 °C. After the incubation period, the solutions were further incubated with E. coli (ATCC 25922 and O157:H7), P. aeruginosa (PA01, NCTC13437) and S. aureus (ATCC12600), and the MIC was assessed as described in the ‘Antibacterial assessment’ section. Additionally, the samples were analysed using electrospray ionization MS to monitor structural changes based on the molecular weight of the peptides.

The subject of data set [3] is P. aeruginosa (PA01). Kind of data set: Inhibition of biofilm formation, crystal violet. Particulars: P. aeruginosa PA01, M63 medium, peptides 0 to 500 µM, 24 h, 0.1% CV. Format: cell-based, Pseudomonas aeruginosa. Here is the method:
Arginine-rich peptides were evaluated for their ability to inhibit biofilm formation of P. aeruginosa (PA01) cells. To assess this, the procedure described in the ‘Antibacterial assessment’ section for determining the MIC was adapted using M63 media (supplemented with 1 mM MgSO4 and 23 µM L-arginine). After 24 h of exposure to peptides (0 to 1 mM), flat-bottom 96-well plates were washed twice with PBS to remove any non-adherent cells. The remaining biofilm was stained with 0.1% crystal violet (CV) for 30 min at room temperature. Subsequently, the plates were washed three times to remove excess dye and left to dry overnight at room temperature. The following day, stained biofilms were solubilized using 30% glacial acetic acid, and absorbance was measured at 550 nm using a microplate reader. Biofilm inhibition was expressed as a percentage relative to control bacterial cells treated with PBS.

Data set [4] concerns the target T1, Sequencing Grade Modified Trypsin (Sus scrofa, UniProt P00761).
T1 construct: purchased Promega
The data set is described as follows: Stability with trypsin by LC-MS. Format: in vitro ADME. The settings on record: 5 µM SGMT trypsin, 50 mM Tris-HCl, 1 mM CaCl2, pH 7.6, 24 h, 37 °C; read-out LC-MS (ESI). The method, then:
as §2

In data set [5] the test system is P. aeruginosa (PA01). The format is cell-based, Pseudomonas aeruginosa. The method, then: as §1, §2
The subject of data set [6] is S. aureus (ATCC12600). Format: cell-based, Staphylococcus aureus. The settings on record: S. aureus ATCC12600.
Data set [7] relates to E. coli. The data set is described as follows: Intracellular ROS, DCFH-DA. Format: cell-based, Escherichia coli. Particulars: peptides at MIC, 1/2× MIC, 1/4× MIC, 4 h, 37 °C. Here is the method:
Total reactive oxygen species (ROS) was measured using an oxidation-sensitive fluorescent dye, 2′,7′-dichlorodihydrofluorescein diacetate (DCFH-DA). For this assay, E. coli and S. aureus cultures were adjusted to an OD600 of 0.3 in MH broth and exposed to peptides at MIC, 1/2× MIC and 1/4× MIC, or to positive control (5 mM H2O2) for 4 h at 37 °C. Cells were centrifuged at 4,000 r.p.m. for 10 min at 4 °C and resuspended in PBS containing 10 µM DCFH-DA. The suspension was incubated under the same conditions for 30 min. Finally, cells were washed twice with PBS, and 150 µl aliquots were transferred to 96-well plates. Oxidized DCF products were detected using a Tecan Spark® microplate reader with excitation at 485 nm and emission at 530 nm. Additionally, 10 µl of E. coli cells incubated with D-R4F4 at MIC, 1/2×MIC and 1/4×MIC was collected for imaging using an All-in-One Fluorescence Microscope (Keyence, Japan).

[8] abbreviates: control without serum or trypsin.
Setting [9] is: peptide incubated with 5 µM SGMT trypsin in 50 mM Tris-HCl, 1 mM CaCl2, pH 7.6, 24 h at 37 °C before MIC.
The mark [10] stands for this setting: peptide incubated with 20% human serum 24 h at 37 °C before MIC.
The mark [11] stands for this setting: peptide incubated with 50% human serum 24 h at 37 °C before MIC.

Molecules are shown by their SMILES. Converted amounts (≈) assume the structure as drawn. Residues, ends and D or L forms follow the SMILES beside them.

T1 sequence (P00761 9-231): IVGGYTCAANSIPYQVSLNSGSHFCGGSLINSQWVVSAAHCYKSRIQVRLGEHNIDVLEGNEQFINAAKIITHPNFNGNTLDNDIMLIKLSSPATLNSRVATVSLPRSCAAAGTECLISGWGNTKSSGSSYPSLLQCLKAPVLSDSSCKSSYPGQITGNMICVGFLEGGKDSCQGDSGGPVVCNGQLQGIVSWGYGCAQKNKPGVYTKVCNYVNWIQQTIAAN

Consider `N=C(N)NCCC[C@@H]1NC(=O)[C@H](CCCNC(=N)N)NC(=O)[C@H](CCCNC(=N)N)NC(=O)[C@H](Cc2ccccc2)NC(=O)[C@H](Cc2ccccc2)NC(=O)[C@H](Cc2ccccc2)NC(=O)[C@H](Cc2ccccc2)NC(=O)[C@H](CCCNC(=N)N)NC1=O` [CP-R4F4] (cyclo(RRRRFFFF)), for which the “MIC and MBC values over all tested strains” value in data set [1] is 15.62 to 250 µM. For the same compound, the “MIC, Control” value in data set [2] (setting [8]) is 62.5 µM (≈ 75.8 µg/mL); in data set [5] (setting [8]) it was 31.25 µM (≈ 37.9 µg/mL). Besides, the “MIC, Trypsin” value in data set [2] (setting [9]) is 62.5 µM (≈ 75.8 µg/mL); in data set [5] (setting [9]), 31.25 µM (≈ 37.9 µg/mL). Moreover, the “MIC, 20% human serum” value worked out at 62.5 µM (≈ 75.8 µg/mL) in data set [2] (setting [10]) and 31.25 µM (≈ 37.9 µg/mL) in data set [5] (setting [10]). For the same compound, the “MIC, 50% human serum” value in data set [2] (setting [11]) worked out at 250 µM (≈ 303 µg/mL); in data set [5] (setting [11]), 125 µM (≈ 152 µg/mL). Also, the “Biofilm formation (biomass, crystal violet)” value in data set [3] is recorded as “lowest levels of biofilm formation at the lower concentrations”. For the same compound, in data set [4], the “Stability with trypsin (LC chromatogram and mass spectrum)” value is “appeared at the same retention time in both the absence and presence of proteases”. Further, the minimum bactericidal concentration (MBC) (usually the lowest tested concentration that kills the bacteria rather than only halting them) in data set [6] (10 µl aliquots plated on MH agar, no visible colonies) is 125 µM (≈ 152 µg/mL). Moreover, the minimum inhibitory concentration (MIC) (usually the lowest concentration that inhibits growth of the organism) in data set [6] (MH broth, 5×10^6 cells, 24 h, 37 °C, absorbance 600 nm, triplicate) was 62.5 µM (≈ 75.8 µg/mL). Besides, the “Intracellular ROS levels” value in data set [7] was “highest modulation of ROS levels”.
